Reference: the supplement of paper PMC10307832

Columns and labels:
Assay in all cases: relative viability (nuclei count vs DMSO), 5 days (fraction); higher = more cells survive
Neratinib + Trametinib = compound: CCOc1cc2ncc(C#N)c(Nc3ccc(OCc4ccccn4)c(Cl)c3)c2cc1NC(=O)/C=C/CN(C)C [Neratinib] + CC(=O)Nc1cccc(-n2c(=O)n(C3CC3)c(=O)c3c(Nc4ccc(I)cc4F)n(C)c(=O)c(C)c32)c1 [Trametinib] (partner 0.02 µM)
Method in brief: (§1)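 One day after seeding in 1536-well plates, lung cancer cell lines were dosed by pin tool. Dosing was either single-drug or a fixed anchor-drug dose plus five library-drug doses (not always all listed) in √10 steps. After 5 days, nuclei were stained in one fix-and-stain step and counted on 4× images, and relative viability is the nuclei count of treated wells over that of vehicle wells, given as the median of duplicate plates.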

Neratinib + Navitoclax = compound: CCOc1cc2ncc(C#N)c(Nc3ccc(OCc4ccccn4)c(Cl)c3)c2cc1NC(=O)/C=C/CN(C)C [Neratinib] + CC1(C)CCC(c2ccc(Cl)cc2)=C(CN2CCN(c3ccc(C(=O)NS(=O)(=O)c4ccc(N[C@H](CCN5CCOCC5)CSc5ccccc5)c(S(=O)(=O)C(F)(F)F)c4)cc3)CC2)C1 [Navitoclax] (partner 0.5 µM)
Method in brief: as §1

Neratinib + Phenformin = compound: CCOc1cc2ncc(C#N)c(Nc3ccc(OCc4ccccn4)c(Cl)c3)c2cc1NC(=O)/C=C/CN(C)C [Neratinib] + N=C(N)NC(=N)NCCc1ccccc1 [Phenformin] (partner 250 µM)
Method in brief: as §1

Neratinib + Pemetrexed = compound: CCOc1cc2ncc(C#N)c(Nc3ccc(OCc4ccccn4)c(Cl)c3)c2cc1NC(=O)/C=C/CN(C)C [Neratinib] + Nc1nc2[nH]cc(CCc3ccc(C(=O)N[C@@H](CCC(=O)O)C(=O)O)cc3)c2c(=O)[nH]1 [Pemetrexed] (partner 0.2 µM)
Method in brief: as §1

Row | Cell Line | relative viability (Neratinib + Trametinib; first compound 0.01 µM) | relative viability (Neratinib + Trametinib; first compound 0.03162 µM) | relative viability (Neratinib + Trametinib; first compound 0.1 µM) | relative viability (Neratinib + Trametinib; first compound 0.3162 µM) | relative viability (Neratinib + Trametinib; first compound 1 µM) | relative viability (Neratinib + Navitoclax; first compound 0.01 µM) | relative viability (Neratinib + Navitoclax; first compound 0.03162 µM) | relative viability (Neratinib + Navitoclax; first compound 0.1 µM) | relative viability (Neratinib + Navitoclax; first compound 0.3162 µM) | relative viability (Neratinib + Navitoclax; first compound 1 µM) | relative viability (Neratinib + Phenformin; first compound 0.01 µM) | relative viability (Neratinib + Phenformin; first compound 0.03162 µM) | relative viability (Neratinib + Phenformin; first compound 0.1 µM) | relative viability (Neratinib + Phenformin; first compound 0.3162 µM) | relative viability (Neratinib + Phenformin; first compound 1 µM) | relative viability (Neratinib + Pemetrexed; first compound 0.01 µM) | relative viability (Neratinib + Pemetrexed; first compound 0.03162 µM) | relative viability (Neratinib + Pemetrexed; first compound 0.3162 µM) | relative viability (Neratinib + Pemetrexed; first compound 1 µM) | relative viability (Neratinib + Pemetrexed; first compound 0.1 µM)
1 | NCI-H1944 | 0.434 | 0.396 | 0.364 | 0.311 | 0.286 | 1.03 | 1 | 0.871 | 0.814 | 0.677 | 0.237 | 0.202 | 0.192 | 0.176 | 0.174 | 0.642 | 0.563 | 0.555 | 0.439 | 
2 | HCC-78 | 0.901 | 0.668 | 0.678 | 0.731 | 0.296 | 0.747 |  | 0.702 | 0.663 | 0.231 | 0.724 | 0.731 | 0.624 | 0.545 | 0.296 | 0.889 | 0.925 | 0.898 | 0.885 | 0.883
3 | NCI-H3122 | 0.29 | 0.214 | 0.2 | 0.227 | 0.175 | 1.05 | 1.02 | 1.05 | 1.03 | 0.407 | 0.366 | 0.407 | 0.317 | 0.35 | 0.187 | 0.197 | 0.214 | 0.551 | 0.187 | 0.179
4 | NCI-H1993 | 0.445 | 0.505 | 0.512 | 0.419 | 0.54 | 0.911 | 0.986 | 0.815 | 0.651 | 0.574 | 0.365 | 0.523 | 0.533 | 0.626 | 0.567 | 0.398 | 0.543 | 0.564 | 0.486 | 0.533
5 | EMC-BAC-2 | 0.949 | 0.885 | 0.855 | 0.793 | 0.671 | 1.16 | 1.47 | 1.01 | 0.993 | 0.811 | 0.586 | 0.554 | 0.505 | 0.451 | 0.377 | 0.473 | 0.495 | 0.451 | 0.475 | 0.435
6 | NCI-H1650 | 0.62 | 0.744 | 0.494 | 0.405 | 0.315 | 1.26 | 1.35 | 1.1 | 1.07 | 1.06 | 0.464 | 0.422 | 0.311 | 0.302 | 0.271 | 0.381 | 0.348 | 0.314 | 0.325 | 0.31
7 | LCLC-97TM1 | 0.187 | 0.193 | 0.192 |  | 0.112 | 0.402 | 0.381 | 0.633 | 0.511 | 0.294 | 0.461 | 0.462 | 0.379 | 0.29 | 0.177 | 0.186 | 0.209 |  | 0.185 | 0.138
8 | H3255 | 0.619 | 0.602 | 0.426 | 0.241 | 0.236 | 0.583 | 0.74 | 0.243 | 0.0785 | 0.0934 | 0.311 | 0.28 | 0.242 | 0.222 | 0.246 | 0.556 | 0.568 | 0.332 | 0.226 | 0.469
9 | LXF-289 | 0.739 | 0.733 | 0.674 | 0.685 | 0.536 | 0.975 | 0.972 | 0.923 |  | 0.878 | 0.533 | 0.537 | 0.461 | 0.476 | 0.435 | 0.881 | 0.981 | 0.933 | 0.87 | 0.834
10 | NCI-H647 | 0.439 | 0.543 | 0.366 | 0.466 | 0.229 | 1.14 | 1.41 | 1.05 | 1.12 | 0.383 | 0.574 |  | 0.398 | 0.368 | 0.113 | 0.187 | 0.174 | 0.156 | 0.134 | 0.19
11 | LC-2-ad | 0.98 | 0.933 | 0.805 | 0.845 | 0.85 | 0.519 | 0.398 | 0.411 | 0.315 | 0.135 |  | 0.578 | 0.557 | 0.421 | 0.45 | 0.25 | 0.258 | 0.282 | 0.24 | 0.274
12 | SK-MES-1 | 0.648 | 0.564 | 0.564 | 0.332 |  | 1.38 | 1.3 | 1.06 | 0.651 | 0.432 | 0.675 | 0.706 | 0.665 | 0.285 | 0.2 | 1.01 | 0.925 | 0.529 | 0.308 | 0.89
13 | A-427 | 0.835 | 0.85 | 0.807 | 0.637 | 0.337 | 1.06 | 0.984 | 0.907 | 0.879 | 0.46 | 0.427 | 0.313 | 0.32 | 0.281 | 0.268 | 1.13 | 1.05 | 0.897 | 0.866 | 0.975
14 | NCI-H441 | 0.509 | 0.428 | 0.356 | 0.332 | 0.245 | 0.767 | 0.571 | 0.707 | 0.624 | 0.173 | 1.04 | 0.82 | 0.94 | 0.705 | 0.45 | 0.256 | 0.266 | 0.278 | 0.248 | 0.261
15 | HCC-366 | 0.428 | 0.396 | 0.342 | 0.322 | 0.205 | 1.08 |  | 0.975 | 1.11 | 1.02 | 0.631 | 0.617 | 0.611 | 0.626 | 0.547 | 0.202 | 0.147 | 0.14 | 0.171 | 0.158
16 | NCI-H1975 | 0.388 | 0.542 | 0.373 | 0.233 | 0.165 | 1.26 | 1.33 | 0.788 | 0.394 | 0.238 | 0.434 | 0.446 | 0.403 | 0.211 | 0.161 | 0.295 | 0.336 | 0.25 | 0.178 | 0.284
17 | NCI-H1437 | 0.488 | 0.579 | 0.485 | 0.424 | 0.328 | 1.14 | 1.12 | 1.05 | 1 | 1.05 | 0.351 | 0.284 | 0.281 | 0.243 | 0.29 | 0.329 | 0.344 | 0.275 | 0.312 | 0.269
18 | NCI-H2023 | 0.594 | 0.491 | 0.371 | 0.43 | 0.399 | 0.987 | 1.04 | 0.909 | 0.943 | 0.699 | 0.434 | 0.451 | 0.362 | 0.323 | 0.298 | 0.251 | 0.221 | 0.221 | 0.212 | 0.21
19 | NCI-H1651 | 0.87 |  | 0.793 | 0.759 | 0.609 | 1.2 | 1.17 | 0.878 | 0.84 | 0.742 | 0.332 | 0.383 | 0.339 | 0.27 | 0.32 | 0.619 | 0.629 | 0.57 | 0.516 | 0.565
20 | NCI-H1666 | 0.868 | 0.815 | 0.712 | 0.637 | 0.78 | 0.971 |  | 0.685 | 0.311 | 0.347 | 0.616 | 0.573 | 0.519 | 0.54 | 0.593 | 0.856 | 0.867 | 0.652 | 0.725 | 0.746
21 | NCI-H1734 | 0.781 | 0.788 | 0.587 |  | 0.503 | 0.902 | 1.02 | 0.789 | 0.818 | 0.557 | 0.428 | 0.429 | 0.382 | 0.412 | 0.32 | 0.421 | 0.467 | 0.432 | 0.492 | 0.354
22 | EPLC-272H | 0.278 | 0.321 | 0.253 | 0.248 | 0.22 | 1.09 | 0.991 | 0.851 | 0.822 | 0.834 |  | 0.309 | 0.317 | 0.235 | 0.157 | 0.27 | 0.356 | 0.281 | 0.233 | 0.262
23 | NCI-H2085 | 0.605 | 0.698 | 0.545 | 0.397 | 0.315 | 1.18 | 1.14 |  | 0.88 | 0.804 | 0.795 | 0.683 | 0.708 | 0.567 | 0.437 | 0.962 | 0.987 | 0.655 | 0.71 | 0.754
24 | BEN | 1.02 | 1.2 | 1 | 0.883 | 0.792 | 0.0747 | 0.0585 | 0.0644 | 0.0753 | 0.0586 | 0.259 | 0.279 | 0.22 | 0.251 | 0.248 | 0.971 | 0.929 | 0.778 | 0.623 | 0.751
25 | COR-L 105 | 0.49 | 0.441 | 0.372 | 0.32 | 0.4 | 1.01 | 0.748 | 0.452 | 0.226 | 0.273 | 0.537 | 0.467 | 0.304 | 0.221 | 0.193 | 1.11 | 1.13 | 0.484 | 0.37 | 0.857
26 | HCC-15 | 0.329 | 0.402 | 0.362 | 0.349 | 0.325 | 0.697 | 0.72 | 0.666 | 0.625 |  | 0.537 | 0.576 | 0.456 | 0.368 | 0.349 | 0.205 | 0.222 | 0.227 | 0.205 | 0.233
27 | NCI-H2170 | 0.873 | 0.862 | 0.631 | 0.178 | 0.171 | 0.391 | 0.377 | 0.274 | 0.196 | 0.184 | 0.419 | 0.418 | 0.269 | 0.268 | 0.216 | 0.275 | 0.261 | 0.203 | 0.196 | 0.237
